Results on two compounds are retold here after US20080015260A1, “Pharmaceutical compositions having improved stability and methods for preparation and use” (Kiel Laboratories, Inc., priority 2006, published 2008).

Molecules are shown by their SMILES. Where a name gives a salt, the structure may show the parent alone.

The nature of the data set: Conversion of API to insoluble tannate complex in reaction mixtures (centrifugation, % converted insoluble). Type of data set: physicochemical. The conditions noted are these: for conversion to the tannate complex at reduced Neusilin® levels: ½ (4.4 wt%) and ¼ (2.2 wt%) Neusilin®. The protocol:
The following example is a series of reaction mixtures for suspension formulations containing phenylephrine HCl, tannic acid and MAS or various concentrations of Neusilin®:
Analysis of the above suspensions was carried out by removing 10 gms of product and centrifuging. The amount of API found in the insoluble portion of the suspension was reported as the % converted insoluble and the liquid portion as the % converted soluble.
Analysis of the above suspension was carried out by removing 10 gms of product and centrifuging. The amount of API found in the insoluble portion of the suspension was reported as the % converted insoluble and the liquid portion as the % converted soluble.

In the case of `CCN(CC)CCOCCOC(=O)C1(c2ccccc2)CCCC1` [carbetapentane, Carbetapentane Citrate], the “conversion to the tannate complex at reduced Neusilin® levels” value was “same level of conversion”. Also, the “effect of Neusilin® on level of conversion to the tannate complex compared to MAS” value (Neusilin® versus MAS, FIG. 2, FIG. 3) is recorded as “does not significantly affect the level of conversion”.
As to `CNC[C@H](O)c1cccc(O)c1` [phenylephrine, Phenylephrine HCl], the “conversion to the tannate complex at reduced Neusilin® levels” value is “same increase in conversion”. For the setting “Neusilin® 8.7 wt% versus MAS 8.7 wt%, FIG. 1”, the “increase in conversion to the tannate complex with Neusilin® in the suspension” value is above 30%.
